Measurements reported in PubChem BioAssay (NCI).
Values joined by “and” are separate entries in the source; they are usually repeats but may differ in a detail not shown here. Identical values can stand only once.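 Five concentrations, 48 hours, 96-well plates. The concentration for 50% growth inhibition is given as GI50. TGI marks complete inhibition of growth.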

What was measured:
Assay in all cases: NCI anticancer screen, dose series, 48 h
NCI-H226 lung = system: NCI-H226 lung
MCF7 breast = system: MCF7 breast
A549 NSCLC = system: A549 NSCLC
MDA-MB-231 breast = system: MDA-MB-231 breast
OVCAR-4 ovarian = system: OVCAR-4 ovarian
NCI-H460 lung = system: NCI-H460 lung
SF-539 CNS = system: SF-539 CNS
OVCAR-8 ovarian = system: OVCAR-8 ovarian
RPMI-8226 leukemia = system: RPMI-8226 leukemia
LOX IMVI melanoma = system: LOX IMVI melanoma

Compound	GI50 (NCI-H226 lung)	TGI (NCI-H226 lung)	GI50 (MCF7 breast)	TGI (MCF7 breast)	GI50 (A549 NSCLC)	TGI (A549 NSCLC)	GI50 (MDA-MB-231 breast)	TGI (MDA-MB-231 breast)	GI50 (OVCAR-4 ovarian)	TGI (OVCAR-4 ovarian)	GI50 (NCI-H460 lung)	TGI (NCI-H460 lung)	GI50 (SF-539 CNS)	TGI (SF-539 CNS)	GI50 (OVCAR-8 ovarian)	TGI (OVCAR-8 ovarian)	GI50 (RPMI-8226 leukemia)	TGI (RPMI-8226 leukemia)	GI50 (LOX IMVI melanoma)	TGI (LOX IMVI melanoma)
O=C(CCCCCCN1CC(=O)N2[C@@H](c3ccc(Cl)c(Cl)c3)c3[nH]c4ccccc4c3C[C@H]2C1=O)NO	4.52 µM	12.2 µM	1.87 µM	15 µM	4.99 µM	13.6 µM	3.47 µM	9.31 µM	4.71 µM	23.8 µM	2.77 µM	9.15 µM	3.76 µM	9.27 µM	2.82 µM	17.9 µM				
Cc1cc(N=Nc2ccccc2C)ccc1N	10.3 µM	30.8 µM and 27.8 µM	16.5 µM	36.2 µM and 43.6 µM	3.42 µM	17.1 µM and 20.3 µM	12.7 µM	30.7 µM and 28.4 µM		62.3 µM	12.3 µM	17.7 µM and 31.2 µM		12.1 µM and 11.6 µM	20.7 µM	34.6 µM and 96.4 µM	1.69 µM	34.5 µM	13.9 µM	25 µM and 28.9 µM
O=C(O)Cc1cccnc1		> 100 µM		> 100 µM		> 100 µM		> 100 µM		> 100 µM		> 100 µM		> 100 µM		> 100 µM		> 100 µM		> 100 µM
O=[N+]([O-])c1ccc(N2CCOCC2)c2c1no[n+]2[O-]	2.91 µM	17.5 µM	0.543 µM	2.96 µM	1.9 µM	6.28 µM	2.7 µM	15.6 µM	1.38 µM	3.99 µM	0.601 µM	2.07 µM	1.07 µM	2.27 µM	1.1 µM	2.62 µM	1.51 µM	4.09 µM	0.675 µM	2.13 µM
O=C(/C=C/c1cccc(O)c1)c1cccc(-n2cc(-c3ccccc3)[nH]c2=O)c1	8.48 µM	28.5 µM	2.29 µM	6.68 µM	6.39 µM	21.8 µM	3.59 µM	12.6 µM	4.15 µM	> 37 µM	2.84 µM	7.4 µM	1.97 µM	3.84 µM	2.86 µM	10.5 µM	2.16 µM	6.33 µM	1.81 µM	3.44 µM
Oc1c(I)cc(I)c2cccnc12	4.51 µM	29.2 µM	3.89 µM	19.9 µM	5.67 µM	> 100 µM	6.99 µM	46.7 µM	3.94 µM	> 100 µM	2.93 µM	10.4 µM	4.16 µM	23.5 µM	3.35 µM	47.1 µM	6.96 µM	> 100 µM	5.13 µM	89.2 µM
C[CH2][Sn]([CH2]C)([O]C(=O)c1ccccc1OC)[O][Sn]([CH2]C)([CH2]C)[O]C(=O)c1ccccc1OC	> 100 µM	> 100 µM			> 100 µM	> 100 µM			> 100 µM	> 100 µM	> 100 µM	> 100 µM	> 100 µM	> 100 µM	> 100 µM	> 100 µM			73 µM	> 100 µM
CC1(C)CC(=O)C2=C(C1)OC(N)=C(c1nc(-c3ccccc3)cs1)C2c1ccc(Br)cc1 (stereo not given)	22.8 µg/mL	96.8 µg/mL	18.2 µg/mL	101 µg/mL	53.1 µg/mL	> 150 µg/mL	59.1 µg/mL	> 150 µg/mL	20.9 µg/mL	121 µg/mL	42.3 µg/mL	> 150 µg/mL	94.8 µg/mL	> 150 µg/mL	116 µg/mL	> 150 µg/mL			124 µg/mL	> 150 µg/mL
COc1cc2c(cc1OCCCCN1CCN(C(=S)SCCC(C#N)(c3ccccc3)c3ccccc3)CC1)N=C[C@@H]1CCCN1C2=O	1.26 µM	3.29 µM	0.435 µM	2.23 µM			1.53 µM	4.73 µM	1.82 µM	17.7 µM	1.25 µM	4.02 µM	1.69 µM	3.27 µM	1.59 µM	> 100 µM	0.496 µM	2.89 µM		
Cc1ccc(C)c(N2C(=O)C(=O)C(c3nc4ccccc4s3)/C(=N/NC(=O)NN)C2=O)c1 (stereo not given)		> 100 µM				> 100 µM				> 100 µM		> 100 µM		> 100 µM		> 100 µM				
Cc1nc(C(=O)O)c2ccccc2n1						> 100 µM						> 100 µM		> 100 µM		> 100 µM		> 100 µM		
CC(C)(Br)C(=O)C(Br)Br	7.5 µM	30.6 µM and 21.3 µM			11 µM	37.3 µM and 41 µM		10 µM		10.9 µM and 9.91 µM	5.75 µM	34.4 µM and 11.4 µM	5.42 µM	> 48.2 µM and 9.97 µM		14.9 µM and 9.13 µM	2.31 µM and 1.14 µM	6.29 µM and 6.22 µM	3.09 µM	16.8 µM and 7.13 µM
C=CNC(=O)NC(=O)CSc1nnc(-c2ccccc2NC(=O)C(F)(F)F)c(=O)[nH]1		> 100 µM				> 100 µM						> 100 µM		> 100 µM		> 100 µM				> 100 µM
COCOCC/C=C/C=O						> 100 µM						> 100 µM		> 100 µM		> 100 µM		> 100 µM		> 100 µM
c1ccc2cc(-c3n(Cc4ccc5ccccc5n4)c4ccccc4[n+]3Cc3ccc4ccccc4n3)ccc2c1			0.277 µM	1.14 µM	0.349 µM	1.51 µM	0.307 µM	1.32 µM	0.255 µM	1.13 µM	0.361 µM	1.31 µM	0.39 µM	1.43 µM	0.297 µM	1.22 µM	0.0802 µM	0.52 µM	0.259 µM	0.837 µM
NC(=O)NNC(=O)NC12CC3CC(CC(C3)C1)C2		> 100 µM				> 100 µM				> 100 µM		> 100 µM		> 100 µM		> 100 µM				> 100 µM
